The values that follow come from article doi:10.1101/2020.06.11.145995v1 (biorxiv, 2020).

Experiment in all cases: biochemical
Assay [1] has as its target ABL1(F317I)-phosphorylated (Homo sapiens, UniProt P00519, F317I).
The target in another assay is ABL1-phosphorylated (Homo sapiens, UniProt P00519).
A further assay has as its target ERK3 (Homo sapiens, UniProt Q16659). As to conditions: read-out: CPT-1-70-1 (1uM) % control.
A further assay deals with EPHA8 (Homo sapiens, UniProt P29322). As to conditions: read-out: CPT-1-70-1 (1uM) % control.
Another assay has as its target EPHA5 (Homo sapiens, UniProt P54756). As to conditions: read-out: CPT-1-70-1 (1uM) % control.
Another assay deals with EPHB4 (Homo sapiens, UniProt P54760). As to conditions: read-out: CPT-1-70-1 (1uM) % control.
For the next assay, the target named is EPHB6 (Homo sapiens, UniProt O15197). As to conditions: read-out: CPT-1-70-1 (1uM) % control.
For the next assay, the target named is ERBB4 (Homo sapiens, UniProt Q15303). As to conditions: read-out: CPT-1-70-1 (1uM) % control.
Another assay has as its target ERK1 (Homo sapiens, UniProt P27361). As to conditions: read-out: CPT-1-70-1 (1uM) % control.
Another assay has as its target ERK5 (Homo sapiens, UniProt Q13164). As to conditions: read-out: CPT-1-70-1 (1uM) % control.
The target in the next assay is EPHB2 (Homo sapiens, UniProt P29323). As to conditions: read-out: CPT-1-70-1 (1uM) % control.
Another assay addresses EPHB3 (Homo sapiens, UniProt P54753). As to conditions: read-out: CPT-1-70-1 (1uM) % control.
The next assay concerns the target EPHA2 (Homo sapiens, UniProt P29317). As to conditions: read-out: CPT-1-70-1 (1uM) % control.
In a further assay the target is ERK8 (Homo sapiens, UniProt Q8TD08). As to conditions: read-out: CPT-1-70-1 (1uM) % control.
The target of a further assay is EPHA6 (Homo sapiens, UniProt Q9UF33). As to conditions: read-out: CPT-1-70-1 (1uM) % control.
The next assay addresses ERBB3 (Homo sapiens, UniProt P21860). As to conditions: read-out: CPT-1-70-1 (1uM) % control.
A further assay addresses EPHA7 (Homo sapiens, UniProt Q15375). As to conditions: read-out: CPT-1-70-1 (1uM) % control.
In the next assay the target is ERK4 (Homo sapiens, UniProt P31152). As to conditions: read-out: CPT-1-70-1 (1uM) % control.
Another assay addresses BUB1 (Homo sapiens, UniProt O43683). As to conditions: read-out: CPT-1-70-1 (1uM) % control.
For another assay, the target named is ERK2 (Homo sapiens, UniProt P28482). As to conditions: read-out: CPT-1-70-1 (1uM) % control.
Another assay deals with ALK(C1156Y) (Homo sapiens, UniProt Q9UM73, C1156Y). As to conditions: read-out: CPT-1-70-1 (1uM) % control.
Sequence of ALK(C1156Y) (Q9UM73 whole entry C1156Y): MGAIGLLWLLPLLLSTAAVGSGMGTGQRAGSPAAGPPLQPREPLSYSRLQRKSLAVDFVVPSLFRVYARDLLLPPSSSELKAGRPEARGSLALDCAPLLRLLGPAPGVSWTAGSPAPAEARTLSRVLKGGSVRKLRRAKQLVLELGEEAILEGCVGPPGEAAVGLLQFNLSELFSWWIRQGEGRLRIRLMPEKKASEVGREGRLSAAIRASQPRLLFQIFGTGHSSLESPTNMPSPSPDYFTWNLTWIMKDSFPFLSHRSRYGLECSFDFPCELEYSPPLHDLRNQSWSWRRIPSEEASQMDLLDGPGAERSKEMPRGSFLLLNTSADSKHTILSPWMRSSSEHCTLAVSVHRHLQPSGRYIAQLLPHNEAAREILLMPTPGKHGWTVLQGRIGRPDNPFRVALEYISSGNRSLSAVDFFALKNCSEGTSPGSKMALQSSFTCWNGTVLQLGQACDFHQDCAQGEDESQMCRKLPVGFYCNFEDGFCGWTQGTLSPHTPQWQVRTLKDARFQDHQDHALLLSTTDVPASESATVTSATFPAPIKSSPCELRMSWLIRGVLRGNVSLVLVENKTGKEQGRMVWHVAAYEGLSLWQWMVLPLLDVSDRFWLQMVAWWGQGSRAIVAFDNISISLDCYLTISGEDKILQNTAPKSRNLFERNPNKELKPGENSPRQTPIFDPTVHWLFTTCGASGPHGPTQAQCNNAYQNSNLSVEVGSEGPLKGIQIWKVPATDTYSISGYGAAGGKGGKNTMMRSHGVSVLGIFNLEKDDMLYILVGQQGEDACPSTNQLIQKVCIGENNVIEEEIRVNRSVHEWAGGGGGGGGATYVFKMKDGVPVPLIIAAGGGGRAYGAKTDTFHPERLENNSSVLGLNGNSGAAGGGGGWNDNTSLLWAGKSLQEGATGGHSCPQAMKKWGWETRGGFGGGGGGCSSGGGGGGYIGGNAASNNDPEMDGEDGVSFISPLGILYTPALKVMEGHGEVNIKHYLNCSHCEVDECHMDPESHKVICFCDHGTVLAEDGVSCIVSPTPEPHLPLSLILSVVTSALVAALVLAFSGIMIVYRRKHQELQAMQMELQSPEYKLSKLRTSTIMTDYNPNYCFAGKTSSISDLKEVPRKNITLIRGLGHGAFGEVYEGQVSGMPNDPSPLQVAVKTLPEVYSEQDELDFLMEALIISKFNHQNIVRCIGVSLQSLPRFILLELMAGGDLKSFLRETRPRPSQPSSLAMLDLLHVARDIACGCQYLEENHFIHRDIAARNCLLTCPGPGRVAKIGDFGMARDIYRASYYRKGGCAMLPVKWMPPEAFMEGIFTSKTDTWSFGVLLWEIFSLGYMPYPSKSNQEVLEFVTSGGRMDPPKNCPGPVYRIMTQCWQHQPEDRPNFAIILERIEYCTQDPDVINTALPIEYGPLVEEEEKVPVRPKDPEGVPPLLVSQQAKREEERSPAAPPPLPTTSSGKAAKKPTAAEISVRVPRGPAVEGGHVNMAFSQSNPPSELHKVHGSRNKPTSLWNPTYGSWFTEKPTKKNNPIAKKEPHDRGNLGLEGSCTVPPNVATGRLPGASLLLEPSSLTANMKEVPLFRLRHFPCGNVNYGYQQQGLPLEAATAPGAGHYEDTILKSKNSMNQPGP
A further assay has as its target EPHA4 (Homo sapiens, UniProt P54764). As to conditions: read-out: CPT-1-70-1 (1uM) % control.
The next assay has as its target EPHA1 (Homo sapiens, UniProt P21709). As to conditions: read-out: CPT-1-70-1 (1uM) % control.
The target of the next assay is EPHA3 (Homo sapiens, UniProt P29320). As to conditions: read-out: CPT-1-70-1 (1uM) % control.
In another assay the target is ERBB2 (Homo sapiens, UniProt P04626). As to conditions: read-out: CPT-1-70-1 (1uM) % control.
In the next assay the target is EGFR(T790M) (Homo sapiens, UniProt P00533, T790M). As to conditions: read-out: CPT-1-70-1 (1uM) % control.
The next assay concerns the target HASPIN (Homo sapiens, UniProt Q8TF76). As to conditions: read-out: CPT-1-70-1 (1uM) % control.
For another assay, the target named is EIF2AK1 (Homo sapiens, UniProt Q9BQI3). As to conditions: read-out: CPT-1-70-1 (1uM) % control.
The target of the next assay is CSF1R-autoinhibited (Homo sapiens, UniProt P07333). As to conditions: read-out: CPT-1-70-1 (1uM) % control.
Another assay addresses KIT-autoinhibited (Homo sapiens, UniProt P10721). As to conditions: read-out: CPT-1-70-1 (1uM) % control.
The mark [2] stands for this setting: read-out: HYJ-2-002-1 (1uM) % control.
The mark [3] stands for this setting: read-out: CPT-1-70-1 (1uM) % control.

Where two headings read alike, the source gives them in different places.

Sequence of ABL1(F317I)-phosphorylated (P00519 whole entry F317I): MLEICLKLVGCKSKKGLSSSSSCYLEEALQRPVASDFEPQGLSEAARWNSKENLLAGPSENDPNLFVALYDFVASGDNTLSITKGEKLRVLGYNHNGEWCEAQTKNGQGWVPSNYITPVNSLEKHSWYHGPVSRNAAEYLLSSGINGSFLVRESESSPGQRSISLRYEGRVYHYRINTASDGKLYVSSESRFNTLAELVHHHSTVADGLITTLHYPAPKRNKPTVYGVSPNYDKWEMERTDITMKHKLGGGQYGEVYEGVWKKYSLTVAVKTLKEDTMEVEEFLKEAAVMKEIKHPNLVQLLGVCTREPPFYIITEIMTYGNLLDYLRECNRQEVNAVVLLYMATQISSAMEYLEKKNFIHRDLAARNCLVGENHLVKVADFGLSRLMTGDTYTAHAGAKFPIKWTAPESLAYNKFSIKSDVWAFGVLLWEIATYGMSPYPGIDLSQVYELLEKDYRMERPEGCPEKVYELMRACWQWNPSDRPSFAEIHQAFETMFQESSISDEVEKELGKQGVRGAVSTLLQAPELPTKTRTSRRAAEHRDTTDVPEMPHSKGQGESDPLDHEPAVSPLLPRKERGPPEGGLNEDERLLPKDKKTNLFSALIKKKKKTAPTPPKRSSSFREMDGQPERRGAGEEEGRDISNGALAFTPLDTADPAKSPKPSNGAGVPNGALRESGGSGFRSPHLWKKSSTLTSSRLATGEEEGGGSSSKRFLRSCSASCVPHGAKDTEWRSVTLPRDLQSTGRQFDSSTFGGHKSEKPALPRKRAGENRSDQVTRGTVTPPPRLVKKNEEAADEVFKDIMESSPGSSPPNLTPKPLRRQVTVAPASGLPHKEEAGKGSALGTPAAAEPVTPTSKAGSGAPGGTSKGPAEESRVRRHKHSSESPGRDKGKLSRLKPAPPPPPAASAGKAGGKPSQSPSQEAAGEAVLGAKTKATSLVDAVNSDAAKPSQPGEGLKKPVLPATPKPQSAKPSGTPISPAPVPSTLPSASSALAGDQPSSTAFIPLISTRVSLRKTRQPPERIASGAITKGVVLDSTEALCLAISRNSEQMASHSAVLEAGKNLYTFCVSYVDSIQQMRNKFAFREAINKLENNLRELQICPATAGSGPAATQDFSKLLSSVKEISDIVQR
Sequence of ABL1-phosphorylated (P00519 whole entry): as the sequence (P00519 whole entry F317I) above, with I317F counted along it
Sequence of EPHA1 (P21709 whole entry): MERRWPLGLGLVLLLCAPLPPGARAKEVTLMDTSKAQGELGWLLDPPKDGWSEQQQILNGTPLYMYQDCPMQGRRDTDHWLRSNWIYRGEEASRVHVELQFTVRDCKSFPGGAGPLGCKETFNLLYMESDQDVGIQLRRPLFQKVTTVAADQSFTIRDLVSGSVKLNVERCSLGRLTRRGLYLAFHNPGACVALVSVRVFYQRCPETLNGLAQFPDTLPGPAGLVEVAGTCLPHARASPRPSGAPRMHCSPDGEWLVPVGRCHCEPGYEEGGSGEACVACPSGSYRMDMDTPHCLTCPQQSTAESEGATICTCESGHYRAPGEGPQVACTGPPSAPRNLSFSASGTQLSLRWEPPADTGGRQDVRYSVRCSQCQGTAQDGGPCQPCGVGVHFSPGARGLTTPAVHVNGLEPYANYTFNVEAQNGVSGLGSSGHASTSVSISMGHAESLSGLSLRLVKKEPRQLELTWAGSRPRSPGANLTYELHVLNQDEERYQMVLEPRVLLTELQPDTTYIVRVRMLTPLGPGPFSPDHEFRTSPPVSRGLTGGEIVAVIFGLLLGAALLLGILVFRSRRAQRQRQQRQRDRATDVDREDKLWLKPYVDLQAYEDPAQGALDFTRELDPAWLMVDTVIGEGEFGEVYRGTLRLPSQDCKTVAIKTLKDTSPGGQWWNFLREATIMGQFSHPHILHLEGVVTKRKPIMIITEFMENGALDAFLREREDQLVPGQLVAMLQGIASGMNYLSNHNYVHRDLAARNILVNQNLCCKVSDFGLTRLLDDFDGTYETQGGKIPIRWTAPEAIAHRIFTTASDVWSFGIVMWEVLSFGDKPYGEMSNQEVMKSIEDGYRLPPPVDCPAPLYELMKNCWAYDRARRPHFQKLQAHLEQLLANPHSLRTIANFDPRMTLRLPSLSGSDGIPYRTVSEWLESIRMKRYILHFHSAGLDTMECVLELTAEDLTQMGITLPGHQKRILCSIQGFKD
Sequence of ERK5 (Q13164 whole entry): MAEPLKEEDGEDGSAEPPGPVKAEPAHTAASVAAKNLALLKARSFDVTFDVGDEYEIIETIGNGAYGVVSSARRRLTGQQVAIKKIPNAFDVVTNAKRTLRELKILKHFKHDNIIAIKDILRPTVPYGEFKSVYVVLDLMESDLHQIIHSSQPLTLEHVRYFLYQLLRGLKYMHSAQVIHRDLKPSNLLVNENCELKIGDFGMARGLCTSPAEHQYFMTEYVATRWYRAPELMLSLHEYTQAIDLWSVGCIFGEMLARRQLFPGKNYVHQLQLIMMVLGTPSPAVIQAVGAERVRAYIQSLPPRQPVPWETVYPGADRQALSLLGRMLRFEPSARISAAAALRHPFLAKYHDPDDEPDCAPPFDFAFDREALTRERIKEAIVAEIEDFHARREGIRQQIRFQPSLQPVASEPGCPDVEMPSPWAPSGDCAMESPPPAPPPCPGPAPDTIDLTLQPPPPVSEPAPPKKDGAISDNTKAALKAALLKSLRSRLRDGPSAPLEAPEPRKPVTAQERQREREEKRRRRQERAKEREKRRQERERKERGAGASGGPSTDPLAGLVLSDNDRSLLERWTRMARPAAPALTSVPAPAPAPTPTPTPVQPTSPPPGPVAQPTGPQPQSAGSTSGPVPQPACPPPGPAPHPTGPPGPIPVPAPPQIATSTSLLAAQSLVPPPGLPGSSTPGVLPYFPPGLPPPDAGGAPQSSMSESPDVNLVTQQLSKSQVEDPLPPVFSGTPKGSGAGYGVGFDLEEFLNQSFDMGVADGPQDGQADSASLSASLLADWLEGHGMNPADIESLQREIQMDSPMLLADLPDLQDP
Sequence of ERK1 (P27361 whole entry): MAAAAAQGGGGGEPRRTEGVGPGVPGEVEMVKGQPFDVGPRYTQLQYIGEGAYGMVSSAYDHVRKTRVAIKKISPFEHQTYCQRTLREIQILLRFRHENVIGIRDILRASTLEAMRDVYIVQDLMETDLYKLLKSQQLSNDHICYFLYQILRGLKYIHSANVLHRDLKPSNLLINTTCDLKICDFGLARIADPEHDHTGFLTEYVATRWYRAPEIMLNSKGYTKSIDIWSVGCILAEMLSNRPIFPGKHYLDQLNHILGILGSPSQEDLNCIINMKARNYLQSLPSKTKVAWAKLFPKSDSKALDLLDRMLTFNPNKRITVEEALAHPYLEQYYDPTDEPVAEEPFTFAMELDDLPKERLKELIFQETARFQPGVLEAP

With `CCN1CCN(Cc2ccc(NC(=O)c3ccc(C)c(CCc4cnc5[nH]ccc5c4OC)c3)cc2C(F)(F)F)CC1` [HYJ-2-002-1], the remaining activity at 1 µM in assay [1] (setting [2]) came out at 34%; at ABL1-phosphorylated (setting [2]), 0.1%.

`CN1CCN(c2ccc(Nc3nc(Oc4ccc(NC(=O)CCl)cc4)c4cc[nH]c4n3)cc2)CC1` [CPT1-70-1]: the remaining activity at 1 µM on ERK3 turned out to be 1%; on EPHA8 it was 53%; at EPHA5 it was 100%; on EPHB4, 100%; at EPHB6 it was 44%; at ERBB4 it was 4.6%. Further, the remaining activity at 1 µM worked out at 100% on ERK1; 87% at ERK5; 100% at EPHB2; 100% at EPHB3; 96% on EPHA2; 86% on ERK8. Besides, the remaining activity at 1 µM amounted to 100% on EPHA6; 53% on ERBB3; 62% on EPHA7; 96% on ERK4; 85% on BUB1; 100% on ERK2. Moreover, the remaining activity at 1 µM at ALK(C1156Y) was 52%; on EPHA4, 94%; at EPHA1, 79%; at EPHA3 it was 100%; at ERBB2, 57%; at EGFR(T790M) it was 0.8%. Further, the remaining activity at 1 µM on HASPIN was 100%; at EIF2AK1, 100%; on CSF1R-autoinhibited it was 1.4%; in assay [1] (setting [3]), 100%; at KIT-autoinhibited, 39%; on ABL1-phosphorylated (setting [3]) it was 51%.
